Test results published in US10570104B2, “Metabolically programmed metal chelators and uses thereof” (University of Florida Research Foundation, Incorporated, priority 2015, dated 2020).
“Also recorded” adds a separate entry of the source. Like-named read-outs stand apart in the source and are kept apart here.

Columns and labels:
[1] = rats, cited from earlier work
[2] = cited from earlier work
[3] = log Papp, octanol/TRIS buffer pH 7.4, shake flask direct method; type: physicochemical; settings: not told
Source text: The redesign of 2 was predicated on the observation that both ligands 2 and 3 were orally active iron chelators in rodents and primates (Table 1), and that when the 4′-(OH) of 2 was methylated, providing (S)-4,5-dihydro-2-(2-hydroxy-4-methoxyphenyl)-4-methyl-4-thiazolecarboxylic acid^43 [(S)-4′-(CH3O)-DADFT, 4], there was a remarkable enhancement in both ICE and lipophilicity (log Papp). The log Papp data are expressed as the log of the fraction of the chelator seen in the octanol layer; measurements were done in TRIS buffer, pH 7.4, using a “shake flask” direct method.^49 The more negative the log Papp, the less chelator is in the octanol phase, the less lipophilic. Unfortunately, the increase in ICE of 4 came with a concomitant increase in toxicity.^50 Thus, the delicate balance between the increase in ICE and toxicity with enhanced lipophilicity needed to be understood and exploited.

[4] = Tissue distribution/metabolism of chelators in rats given sc (HPLC); type: in vivo, Sprague-Dawley rats; settings: sc 7, plasma, 0.5 hour
Protocol: Collection of Chelator Tissue Distribution Samples from Rodents. Male Sprague-Dawley rats (250-350 g) were given a single subcutaneously injection of the monosodium salts of 8 and 11 prepared as described above at a dose of […]. At times 0.5, 1, 2, 4 and 8 hours after dosing (n=3 rats per time point), the animals were euthanized by exposure to CO2 gas. Blood was obtained via cardiac puncture into vacutainers containing sodium citrate. The blood was centrifuged, and the plasma was separated for analysis. The liver, kidney, heart, and pancreas were removed from the animals and frozen.
Tissue Analytical Methods. Tissue samples of animals treated with 8 were prepared for HPLC analysis by homogenizing them in H2O at a ratio of 1:1 (w/v). Then, as a rinse, CH3OH at a ratio of 1:3 (w/v) was added, and the mixture was stored at −20° C. for 30 min. This homogenate was centrifuged. The supernatant was diluted with H2O, vortexed, and filtered with a 0.2 μm membrane. Analytical separation was performed on a Supelco Discovery RP Amide C16 HPLC system with UV detection at 310 nm as described previously.^44,75 Mobile phase and chromatographic conditions were as follows: solvent A, 5% CH3CN/95% buffer (25 mM KH2PO4+2.5 mM 1-octanesulfonic acid, pH 3.0); solvent B, 60% CH3CN/40% buffer.
Tissue samples of animals treated with 11 were prepared for HPLC analysis by homogenizing them in 0.5 N HClO4 at a ratio of 1:3 (w/v). Then, as a rinse, CH3OH at a ratio of 1:3 (w/v) was added, and the mixture was stored at −20° C. for 30 min. This homogenate was centrifuged. The supernatant was diluted with 95% buffer (25 mM KH2PO4, pH 3.0)/5% CH3CN, vortexed, and filtered with a 0.2 μm membrane. Analytical separation was performed on a Supelco Ascentis Express RP-Amide HPLC system with UV detection at 310 nm as described previously. Mobile phase and chromatographic conditions were as for 8.
Ligand concentrations were calculated from the peak area fitted to calibration curves by nonweighted least-squares linear regression with Shimadzu Class-VP 7.4 software.

[5] = cited from earlier work; remark: listed apart in the source
[6] = Tissue distribution/metabolism of chelators in rats given sc (HPLC); type: in vivo, Sprague-Dawley rats
[7] = 2:1 complex with Fe(III), cited from earlier work
[8] = rats; cited from earlier work
[9] = cited from earlier work; remark: listed apart in the source
[10] = rats; cited from earlier work; remark: listed apart in the source

Which “histopathology” value ([1]; extensive tissues) does the source give for `COCCOCCOc1ccc(C2=N[C@@](C)(C(=O)O)CS2)c(O)c1` [Compound 7, (S)-4,5-dihydro-2-[2-hydroxy-4-(3,6-dioxaheptyloxy)phenyl]-4-methyl-4-thiazolecarboxylic acid] here?
Its value is “no drug-related abnormalities were identified”.

And the “CBC and serum chemistries” value ([1]; po s.i.d. 28 d (56.9-170.7 μmol/kg/day), s.i.d. 10 d (384 μmol/kg/d), b.i.d. 7 d (474 μmol/kg/d))?
The value was “No drug-related abnormalities were found”.

And the “BUN and SCr levels” value ([1]; same regimens)?
Its value is “within the normal range”.

And the “urinary Kim-1 excretion” value ([1]; up to 28 days)?
The value was “did not elicit any increases in urinary Kim-1 excretion”.

What about the “Rodent ICE (%)” value ([2]; po, 300 μmol/kg, 48 hour sample collection period, historical) of the same compound?
Its value is 26.7 ± 4.7%.

What about the “Log Papp” value [3] of the same compound?
Its value is −0.89.

And the “share of total drug concentration” value [4]?
The value was 95%.

What about the “Primate ICE (%)” value ([5]; po, 75 μmol/kg, as monosodium salt, historical) of the same compound?
The value was 28.7±12.4%.

And the “Primate ICE (%)” value ([5]; po, 75 μmol/kg, in capsules, historical)?
The value was 26.3 ± 9.9%.

And the “cleavage of 7 to 2” value ([6]; sc 7)?
Its value is “no cleavage to 2; also recorded: does not sustain metabolic cleavage at the 4′-(HO) to yield 2”.

What about the “metabolism of 7 to 8 and 9 in tissues” value ([6]; sc 7, HPLC of tissues) of the same compound?
Its value is “cleavage of the terminal methyl of 7 to the corresponding alcohol 8 did occur”.

What does the source list for `C[C@]1(C(=O)O)CSC(c2ncccc2O)=N1` [Compound 1, (S)-4,5-dihydro-2-(3-hydroxy-2-pyridinyl)-4-methyl-4-thiazolecarboxylic acid]?
Rodent ICE (%) ([2]; po, 150 μmol/kg): 5.5±3.2%; Log Papp [3]: −1.77; cumulative formation constant [7]: 4e+29 M⁻¹; cumulative formation constant ([7]; unit not given): 4×10^29; nephrotoxicity [8]: severe nephrotoxicity; also recorded: unacceptable renal toxicity; Primate ICE (%) ([5]; po, 150 μmol/kg, historical): 16.1±8.5%

With `C[C@]1(C(=O)O)CSC(c2ccc(O)cc2O)=N1` [Compound 2, (S)-2-(2,4-dihydroxyphenyl)-4,5-dihydro-4-methyl-4-thiazolecarboxylic acid] as the compound, how does the “Rodent ICE (%)” value ([2]; po, 300 μmol/kg, historical) read?
The value was 1.1±0.8%.

What about the “Log Papp” value [3] of the same compound?
Its value is −1.05.

What about the “Primate ICE (%)” value ([5]; po, 150 μmol/kg, historical) of the same compound?
Its value is 16.8±7.2%.

And the “tolerability in patients” value ([9]; 5, 10, or 15 mg/kg/day once daily for up to 12 weeks)?
The value was “well tolerated”.

And the “renal toxicity in patients” value ([9]; twice daily 12.5 mg/kg (25 mg/kg/d), three patients after 4-5 weeks)?
The value was “unacceptable renal toxicity”.

With `CC(=O)N(O)CCCCCNC(=O)CCC(=O)N(O)CCCCCNC(=O)CCC(=O)N(O)CCCCCN` [DFO, desferrioxamine B] as the compound, how does the “Rodent ICE (%)” value ([2]; sc, 150 μmol/kg) read?
The value was 2.5 ± 0.7%.

And the “effect on colitis” value [10]?
The value was “prevent acetic acid-induced colitis”.

What about the “Primate ICE (%)” value ([5]; sc, 150 μmol/kg) of the same compound?
The value was 5.5 ± 0.9%.
